Data from patent US20250382264A1, “HETEROCYCLE-CONTAINING AMINO ACID COMPOUND AND COMPLEX” (AICHI STEEL CORPORATION, priority 2022, published 2025).

test system: not listed separately; assay: Absorbance of aqueous iron complex solution irradiated with ultraviolet rays (253.7 nm); format: physicochemical; conditions: aqueous solution of the Fe complex of the named ligand, Fe 100 μM, pH 5.0, ultraviolet 253.7 nm, 10-mm cell
Method: For comparison, absorbance measurement was performed using an aqueous solution of each of an iron complex of ethylenediaminetetraacetic acid (EDTA) (hereinafter, referred to as “Fe-EDTA”), an iron complex of diethylenetriamine-N,N,N',N'',N''-pentaacetic acid (DTPA) (hereinafter, referred to as “Fe-DTPA”), an iron complex of hydroxybenzylethylenediamine (HBED) (hereinafter, referred to as “Fe-HBED”), an iron complex of N,N'-ethylene-bis([…]) (hereinafter, referred to as “Fe-EDDHA”), an iron complex of citric acid, and an iron complex (hereinafter, referred to as “Fe-PDMA”) of a compound represented by the following formula (hereinafter, referred to as “PDMA”). […] Subsequently, a deionized water was added to fill up to 220 mL. This aqueous solution was left to stand at a temperature of 25° C. for 1 hour to yield an aqueous solution of an iron complex having an Fe concentration of 100 μM (5.6 ppm). Thereafter, the absorbance of this aqueous complex solution was measured. […] Subsequently, a deionized water was added to fill up to 220 mL. […] Thereafter, the absorbance of this aqueous complex solution was measured in the same manner as described above (see Table 1). […] Subsequently, about 220 mL of a deionized water was added to the resultant mixture to yield an aqueous complex solution having an Fe concentration of 100 μM (5.6 ppm).

Compound | Absorbance
CN(CCC(=O)O)[C@@H](CCN1CCC[C@H]1C(=O)O)C(=O)O [Compound V7] | 0.354
CC(=O)N[C@@H](CCN1CCC[C@H]1C(=O)O)C(=O)O [Compound V4] | 0.144
O=C([O-])CN(CCN(CC(=O)[O-])CC(=O)[O-])CC(=O)[O-].[Fe+3] [Fe-EDTA, iron complex of ethylenediaminetetraacetic acid] | 1.452
iron complex of diethylenetriamine-N,N,N′,N″,N″-pentaacetic acid [Fe-DTPA] | 1.073
N[C@@H](CCN1CC[C@H]1C(=O)O)C(=O)O [Compound V8] | 0.195
O=C(O)[C@@H](O)CCN1CCC[C@H]1C(=O)O [Compound V2] | 0.193
O=C(O)[C@@H](O)CCN1CC[C@H]1C(=O)O [Compound V9] | 0.332
O=C(CO)N[C@@H](CCN1CCC[C@H]1C(=O)O)C(=O)O [Compound V5] | 0.350
O=C(O)CN[C@@H](CCN1CCC[C@H]1C(=O)O)C(=O)O [Compound V6] | 0.378
N[C@@H](CCN1CCC[C@H]1C(=O)O)C(=O)O [Compound V3] | 0.190
O=C(O)C(O)CCN[C@@H](CCN1CCC[C@H]1C(=O)O)C(=O)O (stereo partly shown) [Fe-PDMA] | 0.644
iron complex of hydroxybenzylethylenediamine [Fe-HBED] | 0.914

test system: corn variety "Launcher 82"; assay: Plant cultivation test (1): hydroponic cultivation of corn, leaf color (SPAD value); format: in vivo; conditions: 3 mL iron material with Fe 100 μM, 3rd day after administration, average of two pots
Method: Seeds of corn variety “Launcher 82” were placed on a paper towel wetted with tap water. 8 days after germination, the seedlings were immersed in 45 mL of a hydroponic nutrient solution (a liquid based on the formulation in the Horticultural Experiment Station). 2 days after that, 3 mL of iron materials including various aqueous complex solutions were administered to the seedlings. Then, on the 3rd day after the administration of the iron materials, the leaf color (SPAD value) of corn was measured. This hydroponic cultivation was performed in two pots, and the average value of the SPAD values was calculated. For comparison, an experiment of administering only iron sulfate and an experiment of administering no iron material were also performed.

Compound | SPAD value Average
O=S(=O)([O-])[O-].[Fe+2] [Fe only, iron sulfate] | 9.5
